34 compounds from US20160137639A1, “TRIAZOLE-ISOXAZOLE COMPOUND AND MEDICAL USE THEREOF” (JAPAN TOBACCO INC., priority 2012, published 2016) can be followed below.

Where two headings read alike, the source gives them in different places.

One assay concerns the target T1, mouse RORγ (Mus musculus, UniProt P51450).
T1 construct: mouse, NM_011281.2 and from Ile251 to Lys516; expressed in transfected cells; host or cells: CHO cells (transient co-transfection with pG5-Luc reporter)
T1 sequence (P51450 251-516): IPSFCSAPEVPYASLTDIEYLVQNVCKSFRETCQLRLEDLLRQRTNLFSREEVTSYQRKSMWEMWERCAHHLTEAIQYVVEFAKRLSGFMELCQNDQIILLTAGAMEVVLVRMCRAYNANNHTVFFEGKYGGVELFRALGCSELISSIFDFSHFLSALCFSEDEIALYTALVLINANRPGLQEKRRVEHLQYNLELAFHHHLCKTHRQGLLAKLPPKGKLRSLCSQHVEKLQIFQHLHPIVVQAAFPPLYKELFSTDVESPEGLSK
As to the kind of experiment: Luciferase reporter gene assay of inhibitory effect against RORγ transcriptional activity (GAL4-mRORγ plasmid in CHO cells). In kind it is cell-based. Put shortly:
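CHO cells transiently co-transfected with GAL4-mouse RORγ LBD (Ile251–Lys516) and GAL4-dependent luciferase reporter; eight compound concentrations, 0.1% DMSO, 2 days at 37 °C. Luminescence as %-of-vehicle control; EC50 by curve fit, cytotoxic concentrations excluded.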

A further assay addresses T2, human RORγ (Homo sapiens, UniProt P51449).
T2 construct: human, NM_005060.3 and from Ser253 to Lys518; expressed in transfected cells; host or cells: CHO cells (transient co-transfection with pG5-Luc reporter)
T2 sequence (P51449 253-518): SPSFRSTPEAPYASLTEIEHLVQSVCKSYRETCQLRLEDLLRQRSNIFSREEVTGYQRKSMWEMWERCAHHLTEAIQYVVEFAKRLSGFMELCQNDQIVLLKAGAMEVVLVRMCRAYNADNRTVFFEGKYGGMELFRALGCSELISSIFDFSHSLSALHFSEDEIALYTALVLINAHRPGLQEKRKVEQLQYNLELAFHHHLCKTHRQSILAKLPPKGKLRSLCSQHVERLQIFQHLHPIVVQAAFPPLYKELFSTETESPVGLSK
As to the kind of experiment: Luciferase reporter gene assay of inhibitory effect against RORγ transcriptional activity (GAL4-hRORγ plasmid in CHO cells). In kind it is cell-based. For orientation: Reporter assays use an easily measured gene product as a stand-in for the process of interest.

A word on the EC50: it is the concentration needed to bring the measured effect to its halfway point. Consider `CCC(CC)C[C@H]1C[C@H](c2nnc(CCC(=O)Nc3ccc(C)cc3C)n2C2CC2)C1` [Example F-495], for which the EC50 at mouse RORγ (read-out: LUC EC50 (μM) mRORg) and on human RORγ (read-out: LUC EC50 (μM) hRORg) was less than 3 µM throughout.

For the compound `CCC(CC)C[C@H]1C[C@@H](c2nnc(CCC(=O)Nc3ccc(C)cc3C)n2C2CC2)C1` [Example F-496], the EC50 at mouse RORγ (read-out: LUC EC50 mRORg) and on human RORγ (read-out: LUC EC50 hRORg) was less than 3 µM throughout.

Consider `CC(=O)N1C[C@H](C(=O)Nc2ccc(C)cc2C)[C@@H](c2nnc(-c3cc(CC(C)C)no3)n2C2CC2)C1` [Example F-506], for which the EC50 at mouse RORγ (read-out: LUC EC50 mRORg) and at human RORγ (read-out: LUC EC50 hRORg) was less than 3 µM throughout.

With `CC(=O)N1C[C@@H](C(=O)Nc2ccc(C)cc2C)[C@H](c2nnc(-c3cc(CC(C)C)no3)n2C2CC2)C1` [Example F-507], the EC50 at mouse RORγ (read-out: LUC EC50 mRORg) and on human RORγ (read-out: LUC EC50 hRORg) was more than 3 µM in each case.

For the compound `Cc1ccc(NC(=O)C[C@@H](CCCO)c2nnc([C@H]3C[C@@H](CC(C)C)C3)n2C2CC2)c(C)c1` [Example F-510], the EC50 at mouse RORγ (read-out: LUC EC50 mRORg) and on human RORγ (read-out: LUC EC50 hRORg) was more than 3 µM each time.

On to `Cc1ccc(NC(=O)C[C@H](CCCO)c2nnc([C@H]3C[C@@H](CC(C)C)C3)n2C2CC2)c(C)c1` [Example F-511], for which the EC50 on mouse RORγ (read-out: LUC EC50 mRORg) and at human RORγ (read-out: LUC EC50 hRORg) was less than 3 µM in each case.

As for `CC(C)C[C@H]1C[C@@H](c2nnc([C@@H](CCO)CC(=O)Nc3ccc(F)cc3Cl)n2C2CC2)C1` [Example F-513], the EC50 at mouse RORγ (read-out: LUC EC50 mRORg) and at human RORγ (read-out: LUC EC50 hRORg) was less than 3 µM throughout.

Regarding `Cc1ccc(NC(=O)C[C@@H](c2nnc([C@H]3C[C@@H](CC(C)C)C3)n2C2CC2)N(C)C)c(C)c1` [Example F-516], the EC50 on mouse RORγ (read-out: LUC EC50 mRORg) and on human RORγ (read-out: LUC EC50 hRORg) was less than 3 µM each time.

Turning to `CC(C)C[C@H]1C[C@@H](c2nnc([C@@H](CCO)CC(=O)Nc3ccc(Cl)cc3F)n2C2CC2)C1` [Example F-519], the EC50 at mouse RORγ (read-out: LUC EC50 mRORg) and on human RORγ (read-out: LUC EC50 hRORg) was less than 3 µM throughout.

Turning to `COc1cc(NC(=O)C[C@H](CCO)c2nnc([C@H]3C[C@@H](CC(C)C)C3)n2C2CC2)ccc1Cl` [Example F-520], the EC50 on mouse RORγ (read-out: LUC EC50 mRORg) and at human RORγ (read-out: LUC EC50 hRORg) was less than 3 µM each time.

For `CC(C)C[C@H]1C[C@@H](c2nnc([C@@H](CCO)CC(=O)NCc3ccc(Cl)cc3Cl)n2C2CC2)C1` [Example F-521], the EC50 on mouse RORγ (read-out: LUC EC50 mRORg) and at human RORγ (read-out: LUC EC50 hRORg) was less than 3 µM throughout.

Consider `CC(C)C[C@H]1C[C@@H](c2nnc([C@@H](CCO)CC(=O)Nc3ccc(C(F)(F)F)cc3C(F)(F)F)n2C2CC2)C1` [Example F-524], for which the EC50 at mouse RORγ (read-out: LUC EC50 mRORg) and on human RORγ (read-out: LUC EC50 hRORg) was less than 3 µM in each case.

Turning to `Cc1cc(Cl)ccc1NC(=O)C[C@H](CCO)c1nnc([C@H]2C[C@@H](CC(C)C)C2)n1C1CC1` [Example F-525], the EC50 at mouse RORγ (read-out: LUC EC50 mRORg) and on human RORγ (read-out: LUC EC50 hRORg) was less than 3 µM throughout.

Consider `COc1cc(NC(=O)C[C@H](CCO)c2nnc([C@H]3C[C@@H](CC(C)C)C3)n2C2CC2)ccc1C` [Example F-526], for which the EC50 on mouse RORγ (read-out: LUC EC50 mRORg) and on human RORγ (read-out: LUC EC50 hRORg) was less than 3 µM throughout.

For the compound `CCC[C@@H](CC(=O)Nc1ccc(C)cc1C)c1nnc(CCCC(C)(C)C)n1C1CC1` [Example F-528], the EC50 at mouse RORγ (read-out: LUC EC50 mRORg) and on human RORγ (read-out: LUC EC50 hRORg) was less than 3 µM throughout.

For `Cc1ccc(NC(=O)C[C@@H](c2nnc([C@H]3C[C@@H](CC(C)C)C3)n2C2CC2)N(C)C(=O)C(C)C)c(C)c1` [Example F-530], the EC50 on mouse RORγ (read-out: LUC EC50 mRORg) and on human RORγ (read-out: LUC EC50 hRORg) was less than 3 µM throughout.

With `COc1cc(C)ccc1CNC(=O)C[C@H](CCO)c1nnc([C@H]2C[C@@H](CC(C)C)C2)n1C1CC1` [Example F-535], the EC50 on mouse RORγ (read-out: LUC EC50 mRORg) and at human RORγ (read-out: LUC EC50 hRORg) was less than 3 µM in each case.

For the compound `Cc1ccc(NC(=O)C[C@H](NC(C)C)c2nnc([C@H]3C[C@@H](CC(C)C)C3)n2C2CC2)c(C)c1` [Example F-536], the EC50 on mouse RORγ (read-out: LUC EC50 mRORg) and at human RORγ (read-out: LUC EC50 hRORg) was less than 3 µM each time.

Consider `Cc1ccc(NC(=O)C[C@@H](c2nnc([C@H]3C[C@@H](CC(C)C)C3)n2C2CC2)N(C)C(C)C)c(C)c1` [Example F-537], for which the EC50 on mouse RORγ (read-out: LUC EC50 mRORg) and on human RORγ (read-out: LUC EC50 hRORg) was less than 3 µM in each case.

Consider `Cc1ccc(NC(=O)[C@H]2CN(C(=O)OC(C)(C)C)C[C@@H]2c2nnc([C@H]3C[C@@H](CC(C)(C)C)C3)n2C2CC2)c(C)c1` [Example F-540], for which the EC50 at mouse RORγ (read-out: LUC EC50 mRORg) and at human RORγ (read-out: LUC EC50 hRORg) was less than 3 µM throughout.

Regarding `Cc1ccc(NC(=O)[C@H]2CN(CC(F)(F)F)C[C@@H]2c2nnc([C@H]3C[C@@H](CC(C)(C)C)C3)n2C2CC2)c(C)c1` [Example F-541], the EC50 on mouse RORγ (read-out: LUC EC50 mRORg) and at human RORγ (read-out: LUC EC50 hRORg) was less than 3 µM in each case.

As to `Cc1ccc(NC(=O)[C@H]2CN(S(=O)(=O)C(F)(F)F)C[C@@H]2c2nnc([C@H]3C[C@@H](CC(C)(C)C)C3)n2C2CC2)c(C)c1` [Example F-542], the EC50 at mouse RORγ (read-out: LUC EC50 mRORg) and on human RORγ (read-out: LUC EC50 hRORg) was less than 3 µM in each case.

Consider `CC(C)C[C@H]1C[C@@H](c2nnc([C@@H](CCO)CC(=O)Nc3cccc4c3CCC4)n2C2CC2)C1` [Example F-543], for which the EC50 at mouse RORγ (read-out: LUC EC50 mRORg) and on human RORγ (read-out: LUC EC50 hRORg) was less than 3 µM each time.

Take `Cc1ccc(NC(=O)C[C@@H](c2nnc([C@H]3C[C@@H](CC(C)C)C3)n2C2CC2)N(C)CCO)c(C)c1` [Example F-544]: the EC50 on mouse RORγ (read-out: LUC EC50 mRORg) and on human RORγ (read-out: LUC EC50 hRORg) was less than 3 µM throughout.

In the case of `Cc1cc(C(F)(F)F)ccc1NC(=O)C[C@H](CCO)c1nnc([C@H]2C[C@@H](CC(C)C)C2)n1C1CC1` [Example F-546], the EC50 on mouse RORγ (read-out: LUC EC50 mRORg) and on human RORγ (read-out: LUC EC50 hRORg) was less than 3 µM each time.

As to `Cc1ccc(NC(=O)[C@H]2CN(S(=O)(=O)C(F)(F)F)C[C@@H]2c2nnc(-c3cc(CC(C)C)on3)n2C2CC2)c(C)c1` [Example F-547], the EC50 on mouse RORγ (read-out: LUC EC50 mRORg) and on human RORγ (read-out: LUC EC50 hRORg) was less than 3 µM throughout.

Turning to `Cc1cc(C)c(NC(=O)C[C@H](CCO)c2nnc([C@H]3C[C@@H](CC(C)C)C3)n2C2CC2)c(F)c1` [Example F-548], the EC50 on mouse RORγ (read-out: LUC EC50 mRORg) and at human RORγ (read-out: LUC EC50 hRORg) was less than 3 µM in each case.

Consider `Cc1ccc(NC(=O)[C@H]2CN(C)C[C@@H]2c2nnc([C@H]3C[C@@H](CC(C)(C)C)C3)n2C2CC2)c(C)c1` [Example F-549], for which the EC50 at mouse RORγ (read-out: LUC EC50 mRORg) and on human RORγ (read-out: LUC EC50 hRORg) was less than 3 µM throughout.

Regarding `Cc1ccc(NC(=O)[C@H]2CN(S(=O)(=O)C(F)F)C[C@@H]2c2nnc([C@H]3C[C@@H](CC(C)(C)C)C3)n2C2CC2)c(C)c1` [Example F-550], the EC50 on mouse RORγ (read-out: LUC EC50 mRORg) and at human RORγ (read-out: LUC EC50 hRORg) was less than 3 µM each time.

On to `Cc1ccc(NC(=O)[C@H]2CN(C(=O)C(F)F)C[C@@H]2c2nnc([C@H]3C[C@@H](CC(C)(C)C)C3)n2C2CC2)c(C)c1` [Example F-551], for which the EC50 on mouse RORγ (read-out: LUC EC50 mRORg) and on human RORγ (read-out: LUC EC50 hRORg) was less than 3 µM throughout.

For the compound `Cc1ccc(NC(=O)[C@H]2CN(S(=O)(=O)C(C)C)C[C@@H]2c2nnc([C@H]3C[C@@H](CC(C)(C)C)C3)n2C2CC2)c(C)c1` [Example F-552], the EC50 on mouse RORγ (read-out: LUC EC50 mRORg) and on human RORγ (read-out: LUC EC50 hRORg) was less than 3 µM each time.

With `Cc1ccc(NC(=O)[C@H]2CN(C(=O)C(C)C)C[C@@H]2c2nnc([C@H]3C[C@@H](CC(C)(C)C)C3)n2C2CC2)c(C)c1` [Example F-553], the EC50 on mouse RORγ (read-out: LUC EC50 mRORg) and on human RORγ (read-out: LUC EC50 hRORg) was less than 3 µM in each case.

In the case of `Cc1ccc(NC(=O)C[C@H](OC(C)C)c2nnc([C@H]3C[C@@H](CC(C)C)C3)n2C2CC2)c(C)c1` [Example F-558], the EC50 at mouse RORγ (read-out: LUC EC50 mRORg) and at human RORγ (read-out: LUC EC50 hRORg) was less than 3 µM in each case.

In the case of `Cc1ccc(NC(=O)[C@H]2CN(S(=O)(=O)CC(F)(F)F)C[C@@H]2c2nnc([C@H]3C[C@@H](CC(C)(C)C)C3)n2C2CC2)c(C)c1` [Example F-559], the EC50 at mouse RORγ (read-out: LUC EC50 mRORg) and at human RORγ (read-out: LUC EC50 hRORg) was less than 3 µM each time.
